From patent US11590116B2 (THERAVANCE BIOPHARMA R&D IP, LLC, priority 2019, dated 2023)
Where two headings read alike, the source gives them in different places.

Columns and labels:
[1] = target: T1, recombinant human ALK5 (TGF-βR1) protein (Homo sapiens, UniProt P36897); experiment: Biochemical ALK5 (TGF-βR1) assay to measure pKi (LANCE Ultra ULight kinase assay); conditions: apparent pKi from pIC50 by Cheng-Prusoff, read-out: ALK5 pKi (converted)
T1 construct: purchased Life Technologies PR9075A
T1 sequence (P36897 34-503): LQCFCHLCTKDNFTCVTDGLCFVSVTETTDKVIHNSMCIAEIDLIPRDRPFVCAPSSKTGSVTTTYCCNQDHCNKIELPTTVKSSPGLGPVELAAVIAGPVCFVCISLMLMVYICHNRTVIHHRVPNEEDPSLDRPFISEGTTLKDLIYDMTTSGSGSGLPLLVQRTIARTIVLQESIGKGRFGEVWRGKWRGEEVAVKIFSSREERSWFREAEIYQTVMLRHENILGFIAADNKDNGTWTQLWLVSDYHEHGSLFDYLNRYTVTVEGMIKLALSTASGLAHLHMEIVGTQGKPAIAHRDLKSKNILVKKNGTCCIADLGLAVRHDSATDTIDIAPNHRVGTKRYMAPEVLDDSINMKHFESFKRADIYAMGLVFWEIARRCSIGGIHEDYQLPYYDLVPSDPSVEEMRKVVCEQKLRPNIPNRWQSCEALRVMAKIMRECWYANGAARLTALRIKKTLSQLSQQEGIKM
How it was run: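 After a 60 min room-temperature preincubation of ALK5 with compound, phosphorylation proceeds 60 min at 37 °C on ATP addition (125 μM as 5× stock). Detection: Eu-labelled phospho-Thr1342 Topo IIα antibody in EDTA buffer, pH 7.0; emission 665 nm.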

[2] = test system: TGF-β-stimulated SMAD3 phosphorylation in BEAS-2B cells; experiment: Cellular ALK5 potency assay, inhibition of TGF-β stimulated pSMAD3 formation in BEAS-2B cells; type: cell-based; conditions: Homo sapiens, read-out: BEAS2B pIC50 (converted)
How it was run: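 pSMAD3 was quantified by AlphaLISA in BEAS-2B lysates after 10 ng/mL TGF-β (final) for 30 min. Before stimulation, cells received compound for 1 h at 37° C in supplemented HBSS. Values are pIC50, relative to TGF-β-stimulated cells without compound.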

[3] = inhibition of TGF-β stimulated pSMAD3 formation, BEAS-2B cells

Structure (SMILES) | Ki [1] [nM] | IC50 [2, 3] [nM] | IC50 ([2]; BEAS-2B) [nM]
Cc1cccc(-c2[nH]cnc2-c2ccc3ncc(-c4ccc(CN5CCNCC5)nc4)cc3c2)n1 [Compound 1026, 6-[5-(6-methyl-2-pyridyl)-1H-imidazol-4-yl]-3-[6-(piperazin-1-ylmethyl)-3-pyridyl]quinoline] | 0.0398 to 0.316 | 25.1 to 158 | –
Cc1cccc(-c2[nH]cnc2-c2ccc3ncc(-c4ccc(C(=O)OC5CNC5)cn4)cc3c2)n1 [Compound 1027, azetidin-3-yl 6-[6-[5-(6-methyl-2-pyridyl)-1H-imidazol-4-yl]-3-quinolyl]pyridine-3-carboxylate] | 0.0398 to 0.316 | 25.1 to 158 | –
Cc1cccc(-c2[nH]cnc2-c2ccc3ncc(-c4ncc(CN5C[C@@H](C)N[C@@H](C)C5)s4)cc3c2)n1 [Compound 1028, 5-[[(3S,5R)-3,5-dimethylpiperazin-1-yl]methyl]-2-[6-[5-(6-methyl-2-pyridyl)-1H-imidazol-4-yl]-3-quinolyl]thiazole] | 0.0398 to 0.316 | < 20 | –
Cc1cccc(-c2[nH]ncc2-c2ccc3ncc(OC(=O)[C@H]4C[C@@H](N)C4)cc3c2)n1 [Compound 1032, 6-(5-(6-methylpyridin-2-yl)-1H-pyrazol-4-yl)quinolin-3-yl (1s,3s)-3-aminocyclobutane-1-carboxylate] | 0.0398 to 0.316 | – | < 20
Cc1cccc(-c2[nH]cnc2-c2ccc3ncc(C4=CCN(C(=O)C5CNC5)CC4)cc3c2)n1 [Compound 1036, azetidin-3-yl-[4-[6-[5-(6-methyl-2-pyridyl)-1H-imidazol-4-yl]-3-quinolyl]-3,6-dihydro-2H-pyridin-1-yl]methanone] | 0.0398 to 0.316 | 200 to 1260 | –
Cc1cccc(-c2[nH]cnc2-c2ccc3nccc(C(=O)OCC4CNC4)c3c2)n1 [Compound 1038, azetidin-3-ylmethyl 6-[5-(6-methyl-2-pyridyl)-1H-imidazol-4-yl]quinoline-4-carboxylate] | 0.398 to 3.16 | 25.1 to 158 | –
Cc1cccc(-c2[nH]cnc2-c2ccc3ncc(C(=O)OCCN)cc3c2)n1 [Compound 1040, 2-aminoethyl 6-[5-(6-methyl-2-pyridyl)-1H-imidazol-4-yl]quinoline-3-carboxylate] | 0.398 to 3.16 | 25.1 to 158 | –
Cc1cccc(-c2[nH]cnc2-c2ccc3ncc(-c4cccc(C(=O)O)n4)cc3c2)n1 [Compound 1041, 6-[6-[5-(6-methyl-2-pyridyl)-1H-imidazol-4-yl]-3-quinolyl]pyridine-2-carboxylic acid] | 0.0398 to 0.316 | 1580 to 10000 | –
Cc1cccc(-c2[nH]cnc2-c2ccc3nccc(C(=O)O[C@H]4C[C@@H](N)C4)c3c2)n1 [Compound 1042, (3-aminocyclobutyl) 6-[5-(6-methyl-2-pyridyl)-1H-imidazol-4-yl]quinoline-4-carboxylate] | 0.398 to 3.16 | 25.1 to 158 | –
Cc1cccc(-c2[nH]cnc2-c2ccc3ncc(-c4nc(C5=CCNC5)cs4)cc3c2)n1 [Compound 1043, 4-(2,5-dihydro-1H-pyrrol-3-yl)-2-[6-[5-(6-methyl-2-pyridyl)-1H-imidazol-4-yl]-3-quinolyl]thiazole] | 0.0398 to 0.316 | < 20 | –
Cc1cccc(-c2[nH]cnc2-c2ccc3ncc(-c4cccc(C(=O)OCC5CNC5)n4)cc3c2)n1 [Compound 1044, azetidin-3-ylmethyl 6-[6-[5-(6-methyl-2-pyridyl)-1H-imidazol-4-yl]-3-quinolyl]pyridine-2-carboxylate] | < 0.0316 | 200 to 1260 | –
Cc1cccc(-c2[nH]cnc2-c2ccc3ncc(-c4ccc(CN5C[C@@H](C)N[C@@H](C)C5)nc4)cc3c2)n1 [Compound 1045, 3-(6-(((3S,5R)-3,5-dimethylpiperazin-1-yl)methyl)pyridin-3-yl)-6-(5-(6-methylpyridin-2-yl)-1H-imidazol-4-yl)quinoline] | 0.0398 to 0.316 | 25.1 to 158 | –
Cc1cccc(-c2[nH]cnc2-c2ccc3ncc(-c4csc(C(=O)OC5CNC5)n4)cc3c2)n1 [Compound 1046, azetidin-3-yl 4-[6-[5-(6-methyl-2-pyridyl)-1H-imidazol-4-yl]-3-quinolyl]thiazole-2-carboxylate] | 0.0398 to 0.316 | 25.1 to 158 | –
Cc1cccc(-c2[nH]cnc2-c2ccc3ncc(-c4nc(C5=CCNCC5)cs4)cc3c2)n1 [Compound 1051, 2-(6-(5-(6-methylpyridin-2-yl)-1H-imidazol-4-yl)quinolin-3-yl)-4-(1,2,3,6-tetrahydropyridin-4-yl)thiazole] | 0.0398 to 0.316 | < 20 | –

The next lines start with results.

Ki [1] [nM] | Structure (SMILES) | IC50 [2, 3] [nM] | IC50 ([2]; BEAS-2B) [nM]
0.398 to 3.16 | Cc1cccc(-c2[nH]ncc2-c2ccc3nccc(C(=O)O[C@H]4C[C@@H](N)C4)c3c2)n1 [Compound 1047, (3-aminocyclobutyl) 6-[5-(6-methyl-2-pyridyl)-1H-pyrazol-4-yl]quinoline-4-carboxylate] | 25.1 to 158 | –
0.0398 to 0.316 | Cc1cccc(-c2[nH]cnc2-c2ccc3ncc(C(=O)OCCC4CCNCC4)cc3c2)n1 [Compound 1048, 2-(4-piperidyl)ethyl 6-[5-(6-methyl-2-pyridyl)-1H-imidazol-4-yl]quinoline-3-carboxylate] | 25.1 to 158 | –
0.0398 to 0.316 | Cc1cccc(-c2[nH]cnc2-c2ccc3ncc(-c4ccnc(C(=O)O[C@@H]5CCNC5)c4)cc3c2)n1 [Compound 1050, [(3R)-pyrrolidin-3-yl] 4-[6-[5-(6-methyl-2-pyridyl)-1H-imidazol-4-yl]-3-quinolyl]pyridine-2-carboxylate] | 200 to 1260 | –
0.398 to 3.16 | Cc1cccc(-c2[nH]cnc2-c2ccc3ncc(-c4cnc(C(=O)OCC5CNC5)nc4)cc3c2)n1 [Compound 1052, azetidin-3-ylmethyl 5-[6-[5-(6-methyl-2-pyridyl)-1H-imidazol-4-yl]-3-quinolyl]pyrimidine-2-carboxylate] | 200 to 1260 | –
0.0398 to 0.316 | Cc1cccc(-c2[nH]cnc2-c2ccc3ncc(-c4ccc(C(=O)OCCN5CCNCC5)nc4)cc3c2)n1 [Compound 1054, 2-piperazin-1-ylethyl 5-[6-[5-(6-methyl-2-pyridyl)-1H-imidazol-4-yl]-3-quinolyl]pyridine-2-carboxylate] | 200 to 1260 | –
0.0398 to 0.316 | Cc1cccc(-c2[nH]cnc2-c2ccc3ncc(-c4ncc(CN5CCNCC5)s4)cc3c2)n1 [Compound 1055, 2-[6-[5-(6-methyl-2-pyridyl)-1H-imidazol-4-yl]-3-quinolyl]-5-(piperazin-1-ylmethyl)thiazole] | < 20 | –
0.0398 to 0.316 | Cc1cccc(-c2[nH]cnc2-c2ccc3ncc(-c4ccc5c(c4)CC[C@@H]5N)cc3c2)n1 [Compound 1056, (1S)-5-[6-[5-(6-methyl-2-pyridyl)-1H-imidazol-4-yl]-3-quinolyl]indan-1-amine] | 25.1 to 158 | –
< 0.0316 | Cc1cccc(-c2[nH]cnc2-c2ccc3ncc(-c4cc(C(=O)OC5CNC5)cs4)cc3c2)n1 [Compound 1057, azetidin-3-yl 5-[6-[5-(6-methyl-2-pyridyl)-1H-imidazol-4-yl]-3-quinolyl]thiophene-3-carboxylate] | 25.1 to 158 | –
0.0398 to 0.316 | Cc1cccc(-c2[nH]cnc2-c2ccc3ncc(-c4ccnc(C(=O)O[C@H]5CCNC5)c4)cc3c2)n1 [Compound 1058, [(3S)-pyrrolidin-3-yl] 4-[6-[5-(6-methyl-2-pyridyl)-1H-imidazol-4-yl]-3-quinolyl]pyridine-2-carboxylate] | 200 to 1260 | –
0.0398 to 0.316 | Cc1cccc(-c2[nH]cnc2-c2ccc3ncc(-c4cnc(C(=O)O[C@@H]5CCNC5)nc4)cc3c2)n1 [Compound 1059, [(3R)-pyrrolidin-3-yl] 5-[6-[5-(6-methyl-2-pyridyl)-1H-imidazol-4-yl]-3-quinolyl]pyrimidine-2-carboxylate] | 200 to 1260 | –
0.0398 to 0.316 | Cc1cccc(-c2[nH]cnc2-c2ccc3ncc(-c4cc(C(=O)O[C@H]5CCNC5)ccn4)cc3c2)n1 [Compound 1060, [(3S)-pyrrolidin-3-yl] 2-[6-[5-(6-methyl-2-pyridyl)-1H-imidazol-4-yl]-3-quinolyl]pyridine-4-carboxylate] | 25.1 to 158 | –
0.0398 to 0.316 | COC(=O)c1ccnc2ccc(-c3cn[nH]c3-c3cccc(C)n3)cc12 [Compound 1061, methyl 6-[5-(6-methyl-2-pyridyl)-1H-pyrazol-4-yl]quinoline-4-carboxylate] | 25.1 to 158 | –
0.0398 to 0.316 | Cc1cccc(-c2[nH]cnc2-c2ccc3ncc(-c4cccc(C(=O)OC5CCNCC5)n4)cc3c2)n1 [Compound 1062, 4-piperidyl 6-[6-[5-(6-methyl-2-pyridyl)-1H-imidazol-4-yl]-3-quinolyl]pyridine-2-carboxylate] | 25.1 to 158 | –
0.0398 to 0.316 | Cc1cccc(-c2[nH]cnc2-c2ccc3ncc(-c4ncc(C(=O)OC5CNC5)cn4)cc3c2)n1 [Compound 1063, azetidin-3-yl 2-[6-[5-(6-methyl-2-pyridyl)-1H-imidazol-4-yl]-3-quinolyl]pyrimidine-5-carboxylate] | 25.1 to 158 | –
